Measured values: PubChem BioAssay AID1645861 (Buhrlage Lab, Dana-Farber Cancer Institute and Novartis …, 2021)
pIC50: −log10 of the molar value. Active and inactive are the calls of the source.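 The calls were made as follows: active = compounds whose peak USP7 inhibition across the dose series reached 30% or more; inactive = the rest.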

Each molecule was assayed against Ubiquitin carboxyl-terminal hydrolase 7 (Homo sapiens) (UniProt Q93009) (assay: Biochemical concentration-response for ubiquitin-specific peptidase 7 DUB inhibitors, verifying primary hits (AID 1645861)). Details: purified USP7, Ub-rhodamine cleavage fluorescence, 60 min.
Chain of Ubiquitin carboxyl-terminal hydrolase 7 (Homo sapiens) (Q93009 whole entry, looked up): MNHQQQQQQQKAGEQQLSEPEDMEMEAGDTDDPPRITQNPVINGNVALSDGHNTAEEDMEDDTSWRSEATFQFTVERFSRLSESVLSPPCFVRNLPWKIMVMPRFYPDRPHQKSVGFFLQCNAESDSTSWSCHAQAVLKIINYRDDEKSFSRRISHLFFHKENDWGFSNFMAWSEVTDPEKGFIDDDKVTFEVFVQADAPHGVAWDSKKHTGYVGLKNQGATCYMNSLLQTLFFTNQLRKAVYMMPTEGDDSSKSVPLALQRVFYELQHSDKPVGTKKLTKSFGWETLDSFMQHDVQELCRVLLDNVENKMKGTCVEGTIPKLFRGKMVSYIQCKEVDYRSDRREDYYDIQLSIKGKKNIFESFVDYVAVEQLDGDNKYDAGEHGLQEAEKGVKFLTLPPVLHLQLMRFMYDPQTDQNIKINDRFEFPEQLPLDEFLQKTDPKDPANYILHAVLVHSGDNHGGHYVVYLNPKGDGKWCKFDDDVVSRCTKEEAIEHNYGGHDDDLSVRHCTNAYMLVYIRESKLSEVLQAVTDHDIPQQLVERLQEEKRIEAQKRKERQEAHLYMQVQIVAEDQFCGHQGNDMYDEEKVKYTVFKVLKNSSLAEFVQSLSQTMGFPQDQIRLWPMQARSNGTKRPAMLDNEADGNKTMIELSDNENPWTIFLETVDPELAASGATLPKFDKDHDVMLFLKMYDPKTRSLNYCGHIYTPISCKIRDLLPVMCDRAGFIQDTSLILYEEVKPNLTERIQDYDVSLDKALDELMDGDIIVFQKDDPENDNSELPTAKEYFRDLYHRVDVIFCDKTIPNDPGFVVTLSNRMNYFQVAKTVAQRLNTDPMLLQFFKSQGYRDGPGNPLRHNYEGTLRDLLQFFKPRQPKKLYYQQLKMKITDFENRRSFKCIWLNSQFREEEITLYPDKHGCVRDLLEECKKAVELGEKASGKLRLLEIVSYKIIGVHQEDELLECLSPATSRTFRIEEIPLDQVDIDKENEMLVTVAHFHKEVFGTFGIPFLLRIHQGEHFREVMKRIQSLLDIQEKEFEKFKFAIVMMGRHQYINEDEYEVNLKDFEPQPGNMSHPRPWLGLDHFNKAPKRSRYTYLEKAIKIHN
In the case of Cc1ccc(NC(=O)Cn2c(=O)n(CC(=O)NCc3ccco3)c(=O)c3ccccc32)cc1C, the IC50 was > 50 µM (inactive). Cc1nn(-c2ccccc2)c2c1N=C1C(Cl)=CC(Cl)=CN1C21C(=O)Nc2ccccc21 (stereo not given) was tested, and the pIC50 was 4.76. With CCOc1ccc(NC(=O)Cn2c(=O)n(CCC(=O)NCc3ccco3)c(=O)c3ccccc32)cc1 the IC50 was > 50 µM (inactive). In the case of O=C(NC(Cc1ccccc1)c1nc2ccccc2[nH]1)C1CC1 (stereo not given), the IC50 was > 50 µM (inactive). CCC1OC(O)(C(C)C(O)C(C)C2OC(=O)/C(C)=C/C(C)=CC(C)C(O)C(C)C/C(C)=C/C=C/C2OC)CC(OC(=O)/C=C/C(=O)NC2=C(O)CCC2=O)C1C (stereo not given) showed a pIC50 of 4.63. O=C1c2c(O)cccc2C2(Oc3cccc4cccc(c34)O2)C2OC12 (stereo not given) was tested, and the IC50 was > 50 µM (inactive). COc1cc(C)cc2c1C(=O)c1c(cc(O)c(Cl)c1O)C2=O was tested, and the pIC50 was 4.89. With COc1ccc(Sc2nc3ccccc3n3cnnc23)cc1 the IC50 was > 50 µM (inactive). In the case of Cc1nnc(NC(=O)C2CCN(c3ccc(S(N)(=O)=O)cc3[N+](=O)[O-])CC2)o1, the pIC50 was 4.31. With C/C=C/C=C/[C@@H]1Cc2cc(O)cc(O)c2O1 the IC50 was > 50 µM (inactive). In the case of COc1ccccc1N1CCN(C(=O)c2ccc3c(=O)n(CCc4ccccc4)c(=O)[nH]c3c2)CC1, the IC50 was > 50 µM (inactive). Cc1ccc(-c2cc(C(F)F)n3ncc(C(=O)Nc4ccc(O)cc4)c3n2)cc1 was tested, and the IC50 was > 50 µM (inactive). For O=C1CC(c2nc3ccccc3n2CCOc2ccc(Cl)cc2)CN1c1ccccc1 (stereo not given), the IC50 was > 50 µM (inactive). In the case of O=C(NC1(O)C(=O)c2ccccc2C1=O)c1ccc(-c2csnn2)cc1, the IC50 was > 50 µM (inactive). Cc1cccc(NC(=O)CSc2nc3c(cc2C#N)C(=O)CCC3)c1 was tested, and the IC50 was > 50 µM (inactive). With CCCCCCCC1OC(=O)Cc2cc(O)c(O)c(O)c21 (stereo not given) the IC50 was > 50 µM (inactive). For COc1cc2cc3c(c(O)c2c(O)c1-c1c(OC)cc2cc4c(c(O)c2c1O)C(=O)OC1CC(C)OC41)C(=O)OC1CC(C)OC31 (stereo not given), the IC50 was > 50 µM (inactive). With Cn1c2ccccc2c(=O)c2c(=O)n(Cc3ccccc3)c(-c3ccco3)nc21 the IC50 was > 50 µM (inactive). In the case of Oc1cccc2nc3c(O)cccc3nc12, the IC50 was > 50 µM (inactive). With Cc1ccc(Cn2cc(C(=O)Nc3ccccc3C(N)=O)ccc2=O)cc1 the IC50 was > 50 µM (inactive). With O=C(Nc1ccccc1Cc1ccccc1)c1nc2n(n1)-c1ccccc1S(=O)(=O)N2 the IC50 was > 50 µM (inactive). In the case of Cn1c(=O)c2ncnnc2n(C)c1=O, the IC50 was > 50 µM (inactive). With O=C(Nc1cccc(F)c1)Nc1cccc(-c2nnc(-c3ccccc3)o2)c1 the IC50 was > 50 µM (inactive). For O=C(NC1(O)C(=O)c2ccccc2C1=O)c1cccc2c1-c1ccccc1C2=O, the IC50 was > 50 µM (inactive). For O=c1[nH]c(C2CCN(S(=O)(=O)c3ccc(S(=O)(=O)NC4CCCCC4)cc3)CC2)nc2c1nnn2Cc1ccc(F)cc1, the IC50 was > 50 µM (inactive). For CCC(=O)N1c2ccccc2NC2=C(C(=O)CC(c3ccccc3OCc3ccccc3)C2)C1c1ccccc1 (stereo not given), the IC50 was > 50 µM (inactive). For Cc1cccc(N2C(=O)/C(=C\c3cc(C#N)n(C)c3C)c3ccccc3C2=O)c1, the IC50 was > 50 µM (inactive). COc1ccc(OCCn2c(C3CC(=O)N(c4cccc(C)c4)C3)nc3ccccc32)cc1 (stereo not given) was tested, and the IC50 was > 50 µM (inactive). Cc1cccc(C)c1NC(=O)CN1C(=O)CC(c2ccccc2)=Nc2ccccc21 was tested, and the IC50 was > 50 µM (inactive). In the case of COc1ccc(NC(=O)Cn2cc(C(=O)c3ccc(C)cc3)c(=O)c3ccccc32)cc1, the IC50 was > 50 µM (inactive). In the case of COc1ccc(CC(=O)Nc2ccccc2-c2nc3ccccc3[nH]2)cc1OC, the IC50 was > 50 µM (inactive). In the case of CC(OC(=O)c1cc(S(=O)(=O)Nc2ccccc2F)ccc1Cl)C(=O)Nc1ccc([N+](=O)[O-])cc1C(F)(F)F (stereo not given), the IC50 was > 50 µM (inactive). CCOC(=O)c1ccc(Oc2sccc2[N+](=O)[O-])cc1 showed a pIC50 of 4.97. With COc1ccccc1-c1nc(-c2cn(-c3cccc(Cl)c3)nn2)no1 the pIC50 was 4.54. With CCCCCCCCCCCC1=C(O)C(=O)C=C(O)C1=O the pIC50 was 4.83. In the case of COC(=O)C1=CC(OC)=C(Cl)C(=O)C12OC(=O)c1c(O)cc(C)cc1O2 (stereo not given), the IC50 was > 50 µM (inactive). With COc1cccc(-n2cnc3cc(C(=O)NCCc4ccccc4)ccc3c2=O)c1 the IC50 was > 50 µM (inactive). COc1ccc(C2/C(=C(\O)c3ccccc3)C(=O)C(=O)N2c2nc3ccc(F)cc3s2)cc1 (stereo not given) gave a pIC50 of 4.62. With COc1ccc(S(=O)(=O)N2CCc3ccccc32)cc1C(=O)Nc1ccc2[nH]c(=O)[nH]c2c1 the IC50 was > 50 µM (inactive). Cc1ccc(C)c(NC(=O)Cn2cc(C(=O)C3CC3)c3ccccc32)c1 gave a pIC50 of 4.39. With O=C(COc1ccccc1-c1nnc(-c2ccccc2)o1)NCCc1ccco1 the IC50 was > 50 µM (inactive). With CC1=C(Cn2c3cccc(=O)c-3nc3ccccc32)CCC(C)(C)C1 the IC50 was > 50 µM (inactive). O=C1NC(=O)/C(=C/c2ccc(OC(=O)c3ccc(Cl)cc3Cl)cc2)N1 was tested, and the IC50 was > 50 µM (inactive). With O=C(c1ccccn1)N1CCC2(CC1)CC1(CO2)Nc2ccccc2-n2cccc21 (stereo not given) the IC50 was > 50 µM (inactive). For CCCCCCCCCC(CCCCCCCCCC(=O)O)O[C@H]1O[C@@H](COC(C)=O)[C@H](O)[C@@H](OC(=O)CC(=O)O)[C@H]1O (stereo not given in full), the IC50 was > 50 µM (inactive). In the case of O=C1C=C(O)c2c(O)cccc2C1=O, the IC50 was > 50 µM (inactive). With Cc1ccc(NC(=O)Cn2cncc(-c3nc(-c4ccccc4)cs3)c2=O)cc1F the IC50 was > 50 µM (inactive). For COc1ccc(CCNC(=O)Cn2c(=O)c3sccc3n(Cc3cccc([N+](=O)[O-])c3)c2=O)cc1OC, the IC50 was > 50 µM (inactive). With Cc1cccc(OCCn2c(CCNC(=O)C3CCCCC3)nc3ccccc32)c1 the IC50 was > 50 µM (inactive). With CCC(=O)Nc1nc2cc(NC(=O)Nc3cccc(C)c3)ccc2s1 the IC50 was > 50 µM (inactive). With Cc1ccc2nc(CNc3ccc(F)cc3C)cc(=O)n2c1 the IC50 was > 50 µM (inactive). Cc1ccnc(Nc2nc(-c3ccccc3)c3cc(Cl)ccc3n2)n1 gave a pIC50 of 4.41. In the case of CN(C)[C@H]1C(=O)C(C(N)=O)=C(O)C2(O)C(=O)C3=C(O)c4c(O)cccc4C(C)(O)C3C(O)C12 (stereo not given in full), the pIC50 was 4.47. In the case of COc1ccc(NC(=O)Cn2cc(C(=O)c3ccc(Cl)cc3)c(=O)c3cc(F)ccc32)cc1, the pIC50 was 4.33. In the case of COc1ccc(-c2ccc3cc(C(=O)O)ccc3c2)cc1C12CC3CC(CC(C3)C1)C2, the IC50 was > 50 µM (inactive). For COc1ccc(-c2nc(Cn3nnc(C(=O)Nc4ccc(C)c(C)c4)c3N)c(C)o2)cc1, the IC50 was > 50 µM (inactive). With Cc1sc(NC(=O)Cn2nnc3ccccc32)nc1-c1ccc2c(c1)CCN2C(=O)c1ccccc1F the IC50 was > 50 µM (inactive). With Cc1nc(C(=O)NC2(O)C(=O)c3ccccc3C2=O)cs1 the IC50 was > 50 µM (inactive). For O=C(CC1C(=O)Nc2nc3ccccc3n21)Nc1cccc2ccccc12 (stereo not given), the IC50 was > 50 µM (inactive). Work on COc1ccccc1-c1nc(-c2cn(-c3ccc(F)cc3)nn2)no1 yielded a pIC50 of 4.36. With O=c1c(O)c(-c2ccc(O)c(O)c2)oc2cc(O)cc(O)c12 the pIC50 was 5.28. With CSCCC(NC(=O)c1ccccc1)c1nc2ccccc2n1CC(=O)Nc1ccccc1 (stereo not given) the IC50 was > 50 µM (inactive). In the case of COc1cccc(NC(=O)C(Sc2cccc(NC(=O)c3ccccc3F)c2)c2ccccc2)c1 (stereo not given), the IC50 was > 50 µM (inactive). For COc1cc(Cl)c(C)cc1NC(=O)Cn1c(=O)n(CC(=O)NCc2ccco2)c(=O)c2ccccc21, the IC50 was > 50 µM (inactive). For O=C(NCCc1nc2ccccc2n1CCOc1ccccc1Cl)C1CCCCC1, the IC50 was > 50 µM (inactive). In the case of O=C(Cn1c(=O)n(Cc2ccccc2)c(=O)c2ncccc21)NCc1ccccc1Cl, the pIC50 was 4.36. CC/C=C\C/C=C\C/C=C\CCCCCCCC(=O)O gave a pIC50 of 4.59. With O=c1[nH]c(C2CCN(S(=O)(=O)c3ccc(S(=O)(=O)NC4CCCCC4)cc3)CC2)nc2c1nnn2Cc1c(F)cccc1Cl the IC50 was > 50 µM (inactive). Work on COc1ccc(C(=O)COC(=O)c2ccccc2NS(=O)(=O)c2ccc(O)c([N+](=O)[O-])c2)cc1 yielded a pIC50 of 4.31. In the case of Cc1nc(N2CCCC2)ncc1-c1cc(=O)[nH]c(Nc2ccc(Cl)cc2Cl)n1, the IC50 was > 50 µM (inactive). CC1CCCN(S(=O)(=O)c2ccc(-n3cnc(C(=O)NC4CC4)c3)nc2)C1 (stereo not given) was tested, and the IC50 was > 50 µM (inactive). With O=C(Nc1cc(F)c2nc(N3CCOCC3)ccc2c1)C1CC1 the IC50 was > 50 µM (inactive). O=C(Nc1ccccc1F)c1nc(-c2cn(-c3ccc(F)cc3)nn2)no1 was tested, and the IC50 was > 50 µM (inactive). Work on COc1cc(O)c2c(O)c3c(cc2c1)C[C@@]1(O)CC(=O)C(C(N)=O)=C(O)[C@@]1(O)C3=O yielded a pIC50 of 4.78. CO/C=C/C(=O)c1cc2cnc3c(=N)cc(NC(C)=O)c([nH]1)c23 gave a pIC50 of 5.02. For N#Cc1cccc(NC(=O)Nc2cccn(Cc3ccccc3F)c2=O)c1, the IC50 was > 50 µM (inactive). In the case of Cc1ccc([N+](=O)[O-])cc1S(=O)(=O)Nc1cc2sc(=O)oc2c2ccccc12, the IC50 was > 50 µM (inactive). O=C(Cn1cc(C(=O)C(F)(F)F)c2cc(Br)ccc21)N1CCc2ccccc21 was tested, and the IC50 was > 50 µM (inactive). CCOc1ccc2c(c1)c(=O)c(C(=O)c1ccccc1)cn2CC(=O)Nc1ccc2c(c1)OCCO2 was tested, and the IC50 was > 50 µM (inactive). With O=C(CCCCCn1c(=O)c2sccc2n(CC(=O)c2ccc(Cl)c(Cl)c2)c1=O)NCc1ccc2c(c1)OCO2 the IC50 was > 50 µM (inactive). With Cc1ccc(C(=O)NC(C)c2ccccc2)cc1NC(=O)c1nsc2ccccc12 (stereo not given) the IC50 was > 50 µM (inactive). In the case of CCc1nc(SCC(=O)Nc2cc(Cl)ccc2C)c2oc3ccccc3c2n1, the IC50 was > 50 µM (inactive). COc1ccc(CCC(=O)Nc2nnc(C3CC(=O)N(c4ccc(C)cc4)C3)s2)cc1 (stereo not given) was tested, and the IC50 was > 50 µM (inactive). In the case of Cc1ccc(Cn2c(=O)c3ncccc3n(CC(=O)NCc3ccc(F)cc3)c2=O)cc1, the IC50 was > 50 µM (inactive). For NS(=O)(=O)c1cccc(NC(=O)/C=C/c2cn(-c3ccccc3)nc2-c2cccc([N+](=O)[O-])c2)c1, the IC50 was > 50 µM (inactive). Cc1cc(=O)n2c3c(c4c(cc13)c(CO)cc(=O)n4C)OC2 was tested, and the IC50 was > 50 µM (inactive). For COc1cc(O)cc2c1C(=O)OC(C)CCCCCCC2 (stereo not given), the IC50 was > 50 µM (inactive). With O=C(CCCCn1c(=O)c2ccccc2n(CC(=O)Nc2ccc3c(c2)OCCO3)c1=O)NCc1ccco1 the IC50 was > 50 µM (inactive). With COc1ccc(-c2nc(SCC(=O)Oc3c(C)cccc3C)n3[nH]c(=O)cc3n2)cc1 the IC50 was > 50 µM (inactive). In the case of Cc1cc(C(=O)NC2(O)C(=O)c3ccccc3C2=O)n(C)n1, the IC50 was > 50 µM (inactive).
